Values after ≈ are worked out from the molar mass of the structure shown. Where two headings read alike, the source gives them in different places.
Columns and labels:
[1] = Crystal form conversion (heat treatment, suspension competition test, DSC analysis); format: physicochemical
Source text: The mutual conversion relationship among the A, B, C, D crystal forms of the sodium salt is further studied in this embodiment by heat treatment under nitrogen protection and suspension competition test.
However, the methods of heating, suspension pulping as well as grinding can not study the thermodynamic conversion relationship between crystal form A and crystal form D. In order to further study the thermodynamic conversion relationship of crystal form A and crystal form D, analyzed from the DSC pattern, the DSC of crystal form A is shown in FIG. 2, and the DSC of crystal form D is shown in FIG. 11, the melting point of crystal form A is higher than that of crystal form D, whereas the enthalpy of melting of crystal form A is much lower than that of crystal form D. It may be judged from the thermodynamic stability relationship table that if TA>TD, ΔHf, A>ΔHf, D, crystal form A and D is a univariate relationship, crystal form A is stable, if TA>TD, ΔHf, A<ΔHf, D, crystal forms A and D are reciprocal relationships, if the temperature is higher than the transcrystallization temperature, crystal form A is stable, and if the temperature is lower than the transcrystallization temperature, crystal form D is stable.

Rat pharmacokinetic test = format: in vivo, SD rats; conditions: for AUC(0-t): read-out: AUC0-24 h; for MRT inf: read-out: MRT0-∞; for MRT last: read-out: MRT0-24 h
Protocol: The plasma kinetic characteristics of the prototype drugs in healthy SD rats are analyzed after three doses of single gavage administration, a single dose of consecutive multiple gavage administration, and a single dose of intravenous injection administration of the sodium salt D crystal form of TJ01-013. These include the rate of absorption and degree of exposure, individual differences, dose relationship, rate of elimination, attainment of steady state, and possible accumulation of D crystal form of TJ01-013. After SD rats are administrated 10, 30, and 90 mg/kg of D crystal form of TJ01-013 by gavage in a single dose, 30 mg/kg of D crystal form of TJ01-013 by gavage in a single dose once per day for 7 consecutive days, and 10 mg/kg of D crystal form of TJ01-013 by intravenous injection in a single dose, the data of the concentrations of the prototype drugs in plasma at different time points in each animal are calculated by applying WinNonlin software fitting, and the mean pharmacokinetic parameters of each group of 6 animals (half of males and half of females) are summarized as shown in Table 12 below.

[2] = Solubility in FaSSIF, FeSSIF, water and SGF; format: physicochemical; conditions: for solubility at 0.5 h / solubility at 2 h / solubility at 24 h: thermodynamic from solid; for Solubility: SGF
Protocol: Aliquots of the samples are placed in the media FaSSIF buffer, FeSSIF buffer, water and SGF and tested for solubility at 0.5, 2 and 24 hours, respectively.

HEK293T cells = test: Selective induction of autophagy in damaged mitochondria, Keima HEK293 cell model; format: cell-based; conditions: 0 μM, 2.5 μM, 5 μM, 10 μM; mitochondria damaged with CCCP; FIG. 42; P=0.0425
Protocol: In HEK293T cells in vitro, fusing Keima fluorescent protein derived from the coral and the mitochondrial localization sequence of cytochrome C oxidase subunit IV asmtKeima protein, staining the nuclei with Hoechst33342 nuclear dye, and using the ThermoCellInsight™ CX7 LZR High Content Screening (HCS) platform at EX/EM=594 nm/620 nm conditions to assess mitophagy levels. The autophagy level of damaged mitochondria is tested by disrupting the mitochondrial membrane potential using […] Carbonyl cyanide 3-chlorophenylhydrazone (CCCP), causing mitochondrial damage.

Mcl-1 protein = Mcl-1 protein (Homo sapiens, UniProt Q07820); test: Affinity test of recombinant Mcl-1 protein (SPR, Biacore); format: binding
Sequence of Mcl-1 protein (Q07820 whole entry, species assumed): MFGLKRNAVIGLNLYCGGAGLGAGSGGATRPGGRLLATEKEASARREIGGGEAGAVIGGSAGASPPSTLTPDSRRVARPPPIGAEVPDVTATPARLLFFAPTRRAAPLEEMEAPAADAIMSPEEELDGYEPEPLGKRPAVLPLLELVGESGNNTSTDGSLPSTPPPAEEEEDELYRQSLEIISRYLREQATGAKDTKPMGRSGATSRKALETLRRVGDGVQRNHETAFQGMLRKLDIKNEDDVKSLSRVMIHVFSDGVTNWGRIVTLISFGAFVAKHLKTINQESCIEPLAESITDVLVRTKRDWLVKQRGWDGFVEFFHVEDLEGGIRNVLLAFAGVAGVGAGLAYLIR
Source text: The binding affinity of the sodium salt D crystal form of TJ01-013 to the Mcl-1 protein is studied by an in vitro Surface Plasmon Resonance (SPR) test, using a Biacore analyzer and measuring with a CM5 chip being coupled to the protein.

[3] = both sexes, SD, rat, plasma, po, 10 mg/kg, SD rats, single gavage, 10 mg/kg
[4] = both sexes, SD, rat, plasma, po, 30 mg/kg, SD rats, multiple gavage, 30 mg/kg once per day for 7 days
[5] = both sexes, SD, rat, plasma, po, 30 mg/kg, SD rats, single gavage, 30 mg/kg
[6] = both sexes, SD, rat, plasma, po, 90 mg/kg, SD rats, single gavage, 90 mg/kg
[7] = both sexes, Sprague-Dawley (SD), rat, plasma, SD rats, single intravenous injection, 10 mg/kg
[8] = both sexes, rat, plasma, po, SD rats, single gavage, 10 mg/kg
[9] = both sexes, rat, plasma, po, SD rats, single gavage, 30 mg/kg
[10] = both sexes, rat, plasma, po, SD rats, single gavage, 90 mg/kg

Structure (SMILES): O=C(O)C[S+]([O-])c1cc(NS(=O)(=O)c2ccc(Br)cc2)c2ccccc2c1O (centres unmarked) [Embodiment 4]
- Crystal form conversion / relative stability in suspension competition test ([1]; equal amounts mixed, RT/50, magnetic stirring ~1000 rpm, about 20 hours, listed as crystal form D): more stable than crystal form B, C
- Thermodynamic stability of crystal form A versus crystal form D ([1]; judged from DSC data (Tables 9-10)): more stable at lower temperatures
- Dose relationship of exposure (Cmax, AUC0-24 h) (Rat pharmacokinetic test; SD rats, single gavage 10, 30, 90 mg/kg): the increase ratio is smaller than that of the dose
- Pharmacokinetic characteristics (in words) (Rat pharmacokinetic test; SD rats, single gavage and intravenous administration): rapid absorption, low apparent volume of distribution and moderate elimination rate
- Tissue distribution (in words) (Rat pharmacokinetic test; SD rats, single intravenous administration): low degree tissue distribution
- Difference of plasma pharmacokinetic parameters between male and female (Rat pharmacokinetic test; SD rats, single intravenous, single and multiple gavage): no significant difference between male and female
- AUC(0-t) (Rat pharmacokinetic test; both sexes, SD, rat, plasma, iv, 10 mg/kg, SD rats, single intravenous injection, 10 mg/kg): 112000 ± 11000 ng·h/mL
- AUC(0-inf) (Rat pharmacokinetic test; both sexes, SD, rat, plasma, po, 10 mg/kg, SD rats, single gavage): 11100 ± 4320 ng·h/mL
- AUC(0-t) (Rat pharmacokinetic test; [3]): 10700 ± 4440 ng·h/mL
- MRT inf (Rat pharmacokinetic test; [3]): 4.82 ± 1.4 h
- AUC(0-inf) (Rat pharmacokinetic test; [4]): 26600 ± 14200 ng·h/mL
- AUC(0-t) (Rat pharmacokinetic test; [4]): 26200 ± 13700 ng·h/mL
- MRT inf (Rat pharmacokinetic test; [4]): 3.86 ± 0.947 h
- AUC(0-inf) (Rat pharmacokinetic test; both sexes, SD, rat, plasma, po, 30 mg/kg, SD rats, single gavage): 22800 ± 6860 ng·h/mL
- AUC(0-t) (Rat pharmacokinetic test; [5]): 22100 ± 6660 ng·h/mL
- MRT inf (Rat pharmacokinetic test; [5]): 5.11 ± 1.84 h
- AUC(0-inf) (Rat pharmacokinetic test; both sexes, SD, rat, plasma, po, 90 mg/kg, SD rats, single gavage): 50100 ± 12200 ng·h/mL
- AUC(0-t) (Rat pharmacokinetic test; [6]): 49900 ± 12200 ng·h/mL
- MRT inf (Rat pharmacokinetic test; [6]): 3.94 ± 0.754 h
- AUC(0-inf) (Rat pharmacokinetic test; both sexes, Sprague-Dawley (SD), rat, plasma, iv, 10 mg/kg, SD rats, single intravenous injection): 113000 ± 11000 ng·h/mL
- MRT inf (Rat pharmacokinetic test; both sexes, Sprague-Dawley (SD), rat, plasma, iv, 10 mg/kg, SD rats, single intravenous injection, 10 mg/kg): 2.06 ± 0.192 h
- Cmax at 7 days (Rat pharmacokinetic test; both sexes, Sprague-Dawley (SD), rat, plasma, po, SD rats, multiple gavage, 30 mg/kg once per day for 7 days): 5900 ± 3210 ng/mL
- Tmax at 7 days (Rat pharmacokinetic test; both sexes, Sprague-Dawley (SD), rat, plasma, po, SD rats, multiple gavage, 30 mg/kg once per day for 7 days, median (min, max)): 1 h
- Tmax (Rat pharmacokinetic test; both sexes, Sprague-Dawley (SD), rat, plasma, po, SD rats, single gavage, 10 mg/kg, median (min, max)): 0.5 h
- Tmax (Rat pharmacokinetic test; both sexes, Sprague-Dawley (SD), rat, plasma, po, SD rats, single gavage, 30 mg/kg, median (min, max)): 0.5 h
- Tmax (Rat pharmacokinetic test; both sexes, Sprague-Dawley (SD), rat, plasma, po, SD rats, single gavage, 90 mg/kg, median (min, max)): 1 h
- clearance (Rat pharmacokinetic test; [7]): 1.49 mL/min/kg
- half-life (Rat pharmacokinetic test; [7]): 2.26 ± 0.222 h
- MRT last (Rat pharmacokinetic test; [7]): 2 ± 0.168 h
- bioavailability (Rat pharmacokinetic test; both sexes, rat, plasma, oral, SD rats, single gavage 10 mg/kg versus intravenous 10 mg/kg, read-out: F (absolute bioavailability)): 9.55%
- half-life at 7 days (Rat pharmacokinetic test; both sexes, rat, plasma, po, SD rats, multiple gavage, 30 mg/kg once per day for 7 days): 1.94 ± 0.898 h
- Cmax (Rat pharmacokinetic test; [8]): 3130 ± 1660 ng/mL
- half-life (Rat pharmacokinetic test; [8]): 3.86 ± 1.47 h
- MRT last (Rat pharmacokinetic test; [8]): 3.84 ± 0.708 h
- Cmax (Rat pharmacokinetic test; [9]): 4730 ± 1200 ng/mL
- half-life (Rat pharmacokinetic test; [9]): 3.54 ± 2.55 h
- MRT last (Rat pharmacokinetic test; [9]): 4.42 ± 0.923 h
- Cmax (Rat pharmacokinetic test; [10]): 9980 ± 1850 ng/mL
- half-life (Rat pharmacokinetic test; [10]): 2.08 ± 0.754 h
- MRT last (Rat pharmacokinetic test; [10]): 3.89 ± 0.756 h
- concentration at 5 min (Rat pharmacokinetic test; both sexes, rat, plasma, SD rats, single intravenous injection, 10 mg/kg, read-out: C5 min): 79900 ± 11600 ng/mL
- Vd (Rat pharmacokinetic test; both sexes, rat, plasma, SD rats, single intravenous injection, 10 mg/kg, read-out: Vss): 0.184 L/kg
- Accumulation (Rat pharmacokinetic test; rats, 30 mg/kg gavage once a day for 7 consecutive days): no obvious accumulation
- solubility at 0.5 h ([2]; FaSSIF buffer, FaSSIF, 0.5 h): 3300 µg/mL (≈ 6.81 mM)
- solubility at 2 h ([2]; FaSSIF buffer, FaSSIF, 2 h): 3270 µg/mL (≈ 6.75 mM)
- solubility at 24 h ([2]; FaSSIF buffer, FaSSIF, 24 h): 2340 µg/mL (≈ 4.83 mM)
- solubility at 0.5 h ([2]; FeSSIF buffer, FeSSIF, 0.5 h): 1320 µg/mL (≈ 2.73 mM)
- solubility at 2 h ([2]; FeSSIF buffer, FeSSIF, 2 h): 1380 µg/mL (≈ 2.85 mM)
- solubility at 24 h ([2]; FeSSIF buffer, FeSSIF, 24 h): 1290 µg/mL (≈ 2.66 mM)
- Solubility (in words) ([2]; SGF (FIG. 41)): low solubility
- Solubility ([2]; 0.5 h): Not detected
- Solubility ([2]; 2 h): Not detected
- Solubility ([2]; 24 h): Not detected
- solubility at 0.5 h ([2]; Water, 0.5 h): 4100 µg/mL (≈ 8.46 mM)
- solubility at 2 h ([2]; Water, 2 h): 4190 µg/mL (≈ 8.65 mM)
- solubility at 24 h ([2]; Water, 24 h): 3870 µg/mL (≈ 7.99 mM)
- Solubility (in words) ([2]; water, FaSSIF, FeSSIF (FIG. 41)): high solubility
- Induction of autophagy in damaged mitochondria (mitophagy level, mtKeima) (HEK293T cells): selectively induce autophagy in the damaged mitochondria
- Kd (Mcl-1 protein; CM5 chip coupled to the protein, read-out: Affinity constant KD): 1120 nM
- kon (Mcl-1 protein; CM5 chip, read-out: Binding constant ka): 1090 M⁻¹ s⁻¹
- Remarks (kind of binding) (Mcl-1 protein; listed as TJ0113): specific
- Remarks (kind of binding) (Mcl-1 protein; listed as sodium salt D crystal form of TJ01-013): can bind specifically to Mcl-1 protein

— patent US20250333377A1, “SOLID FORM OF NAPHTHYLAMINE MITOPHAGY INDUCER, AND PREPARATION METHOD THEREFOR, PHARMACEUTICAL COMPOSITION THEREOF AND USE THEREOF” (HANGZHOU PHECDAMED CO., LTD., priority 2023, published 2025)
